Measured values from patent US20140378408A1, “NUCLEOSIDE 5'-PHOSPHOROTHIOATE ANALOGUES AND USES THEREOF” (BAR-ILAN UNIVERSITY, an Israeli University, priority 2012, published 2014).

What was measured:
human NPP3 = biological target: T1, human NPP3 (Homo sapiens, UniProt O14638); assay: Inhibition of NPP3 activity; format: biochemical; conditions: for inhibition at 100 µM: read-out: inhibition of NPP3 activity; for inhibition of pnp-TMP hydrolysis by NPP3: analogue and pnp-TMP 100 μM
T1 construct: made in house; host or cells: COS-7 cells (transfected; protein extract / cell lysate)
T1 sequence (O14638 1-875): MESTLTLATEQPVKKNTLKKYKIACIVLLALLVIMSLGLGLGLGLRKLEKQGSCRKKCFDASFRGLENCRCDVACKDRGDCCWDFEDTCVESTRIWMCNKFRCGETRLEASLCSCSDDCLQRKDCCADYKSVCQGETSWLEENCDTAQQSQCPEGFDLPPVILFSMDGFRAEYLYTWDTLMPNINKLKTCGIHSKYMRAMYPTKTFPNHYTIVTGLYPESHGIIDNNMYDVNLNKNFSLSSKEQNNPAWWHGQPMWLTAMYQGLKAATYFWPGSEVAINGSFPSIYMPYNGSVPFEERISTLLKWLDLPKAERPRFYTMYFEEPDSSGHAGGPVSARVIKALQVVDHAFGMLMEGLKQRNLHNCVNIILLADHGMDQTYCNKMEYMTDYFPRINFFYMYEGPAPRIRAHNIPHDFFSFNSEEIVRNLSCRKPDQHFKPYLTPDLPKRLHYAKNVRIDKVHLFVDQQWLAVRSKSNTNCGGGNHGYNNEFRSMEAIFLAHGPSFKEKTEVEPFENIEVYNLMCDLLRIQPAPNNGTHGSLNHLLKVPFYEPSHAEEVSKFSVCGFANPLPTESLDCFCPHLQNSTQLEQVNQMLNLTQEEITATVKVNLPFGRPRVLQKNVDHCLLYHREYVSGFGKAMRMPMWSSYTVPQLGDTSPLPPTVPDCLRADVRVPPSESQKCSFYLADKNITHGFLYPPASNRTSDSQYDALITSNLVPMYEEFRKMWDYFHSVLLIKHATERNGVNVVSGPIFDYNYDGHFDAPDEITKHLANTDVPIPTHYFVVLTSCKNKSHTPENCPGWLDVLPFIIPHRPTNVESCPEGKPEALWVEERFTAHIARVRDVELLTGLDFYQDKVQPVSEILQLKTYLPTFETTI
Experimental: Pnp-TMP hydrolyses were carried out at 37° C. in 0.2 ml of the following incubation mixture: in mM, 1 CaCl2, 130 NaCl, 5 KCl and 50 Tris, pH 8.5, with or without the analogue tested and/or substrates. Substrates and analogues were all used at the final concentration of 100 μM. […] For pnp-TMP hydrolysis, the production of para-nitro-phenol was measured at […], 15 min after the initiation of the reaction.
The samples were centrifuged for 5 min at 13,000×g. Supernatants were neutralized with 1 M KOH (Fisher Scientific, Ottawa, ON, Canada) at 4° C. and centrifuged for 5 min at 13,000×g.

human NTPDase2 = biological target: T2, human NTPDase2 (Homo sapiens, UniProt Q9Y5L3); assay: Hydrolysis by human NTPDase2; format: in vitro ADME; conditions: for Hydrolysis by NTPDase2: 100 μM, 1 h, activity with 100 μM ATP = 100%
T2 construct: made in house; host or cells: COS-7 cells (transfected; protein extract)
T2 sequence (Q9Y5L3 1-495): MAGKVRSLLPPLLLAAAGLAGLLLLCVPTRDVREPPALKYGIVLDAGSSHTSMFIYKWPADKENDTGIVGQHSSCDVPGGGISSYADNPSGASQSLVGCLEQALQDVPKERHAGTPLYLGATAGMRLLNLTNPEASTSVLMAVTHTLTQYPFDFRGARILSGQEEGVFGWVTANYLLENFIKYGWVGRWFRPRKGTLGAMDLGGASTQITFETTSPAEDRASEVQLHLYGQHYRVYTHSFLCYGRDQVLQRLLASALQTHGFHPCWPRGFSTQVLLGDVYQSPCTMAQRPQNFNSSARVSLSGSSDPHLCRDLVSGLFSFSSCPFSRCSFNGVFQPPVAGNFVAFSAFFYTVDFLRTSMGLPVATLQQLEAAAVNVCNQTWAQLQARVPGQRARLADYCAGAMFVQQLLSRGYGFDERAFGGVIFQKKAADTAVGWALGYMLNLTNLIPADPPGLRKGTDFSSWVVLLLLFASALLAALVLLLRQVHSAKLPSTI

human NPP1 [1] = biological target: T3, human NPP1 (Homo sapiens, UniProt P22413); assay: Hydrolysis by human NPP1; format: in vitro ADME; conditions: for Hydrolysis by NPP1: 100 μM, 1 h, compared to ATP; for Relative hydrolysis by NPP1: over 2 h
T3 construct: made in house; host or cells: COS-7 cells (transfected; protein extract / cell lysate)
T3 sequence (P22413 1-925): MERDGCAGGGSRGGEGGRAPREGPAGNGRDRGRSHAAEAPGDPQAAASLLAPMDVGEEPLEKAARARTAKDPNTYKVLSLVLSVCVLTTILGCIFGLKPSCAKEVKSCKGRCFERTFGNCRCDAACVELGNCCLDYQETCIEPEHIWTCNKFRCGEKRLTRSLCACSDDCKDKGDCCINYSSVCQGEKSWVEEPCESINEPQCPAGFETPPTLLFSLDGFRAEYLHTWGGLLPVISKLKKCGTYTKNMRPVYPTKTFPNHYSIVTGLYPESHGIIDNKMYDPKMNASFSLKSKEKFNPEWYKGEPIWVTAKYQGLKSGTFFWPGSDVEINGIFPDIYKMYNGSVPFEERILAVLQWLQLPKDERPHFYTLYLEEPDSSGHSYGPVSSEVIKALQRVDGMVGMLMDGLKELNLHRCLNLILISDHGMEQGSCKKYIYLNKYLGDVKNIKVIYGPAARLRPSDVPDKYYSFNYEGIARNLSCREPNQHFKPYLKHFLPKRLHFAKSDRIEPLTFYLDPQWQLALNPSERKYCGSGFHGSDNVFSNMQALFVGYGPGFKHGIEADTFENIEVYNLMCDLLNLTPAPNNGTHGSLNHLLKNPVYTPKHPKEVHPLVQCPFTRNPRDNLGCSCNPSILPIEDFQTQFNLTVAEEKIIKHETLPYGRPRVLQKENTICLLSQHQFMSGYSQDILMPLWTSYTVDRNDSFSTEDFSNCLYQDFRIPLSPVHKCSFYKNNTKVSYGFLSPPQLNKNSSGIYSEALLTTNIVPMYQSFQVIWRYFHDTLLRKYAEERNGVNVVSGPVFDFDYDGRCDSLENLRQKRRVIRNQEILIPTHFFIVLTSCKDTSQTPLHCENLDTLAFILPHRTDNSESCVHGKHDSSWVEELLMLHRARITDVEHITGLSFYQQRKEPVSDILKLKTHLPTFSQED

human NPP1 [2] = biological target: T3, human NPP1; assay: Inhibition of NPP1 activity; format: biochemical; conditions: pNP-TMP 5·10^−5 M

Molecule: Nc1ncnc2c1ncn2[C@@H]1O[C@H](COP(O)(=S)OP(=O)(O)C(Cl)(Cl)P(=O)(O)O)[C@@H](O)[C@H]1O (single isomer, unassigned) [APPCCl2P-α-S, adenosine 5′-[Pα-thio]-β,γ-(dichloromethylene)triphosphate]
- inhibition of the hydrolysis of ATP by NPP3 (human NPP3): 33%
- inhibition at 100 µM (human NPP3): 23 to 43%

Molecule: Nc1ncnc2c1ncn2[C@@H]1O[C@H](COP(O)(=S)OP(=O)(O)C(Cl)(Cl)P(=O)(O)O)[C@@H](O)[C@H]1O (single isomer, unassigned; isomer a) [APPCCl2P-α-S (isomer A), adenosine 5′-[Pα-thio]-β,γ-(dichloromethylene)triphosphate]
- Hydrolysis by NTPDase2 (human NTPDase2; listed as APPCCl2P-α-S A): 5.2 ± 0.1%

Molecule: Nc1ncnc2c1ncn2[C@@H]1O[C@H](COP(O)(=S)OP(=O)(O)CP(=O)(O)O)[C@@H](O)[C@H]1O (single isomer, unassigned; isomer a) [APPCP-α-S (isomer A), adenosine 5′-[Pα-thio]-β,γ-methylenetriphosphate]
- Hydrolysis by NPP1 (human NPP1 [1]): fully stable
- Hydrolysis by NTPDase2 (human NTPDase2; listed as APPCP-α-S A): 4.7%
- IC50 (human NPP1 [2]; listed as APPCP-α-S A): 16.3 ± 0.04 µM

Molecule: Nc1ncnc2c1ncn2[C@@H]1O[C@H](COP(O)(=S)OP(=O)(O)C(Cl)(Cl)P(=O)(O)O)[C@@H](O)[C@H]1O (single isomer, unassigned; isomer b) [APPCCl2P-α-S (isomer B), adenosine 5′-[Pα-thio]-β,γ-(dichloromethylene)triphosphate]
- Hydrolysis by NTPDase2 (human NTPDase2; listed as APPCCl2P-α-S B): 5.5%
- IC50 (human NPP1 [2]): 31.2 ± 0.1 µM

Molecule: Nc1ncnc2c1ncn2[C@@H]1O[C@H](COP(O)(=S)OP(=O)(O)CP(=O)(O)O)[C@@H](O)[C@H]1O (single isomer, unassigned; isomer b) [APPCP-α-S (isomer B), adenosine 5′-[Pα-thio]-β,γ-methylenetriphosphate]
- Hydrolysis by NPP1 (human NPP1 [1]): ~4%
- Hydrolysis by NTPDase2 (human NTPDase2; listed as APPCP-α-S B): 5.5 ± 0.3%
- IC50 (human NPP1 [2]; listed as APPCP-α-S B): 18.7 ± 0.03 µM

Molecule: Nc1ncnc2c1ncn2[C@@H]1O[C@H](COP(=O)(O)OP(O)(O)=S)[C@@H](O)[C@H]1O [ADP-β-S, adenosine 5′-[β-thio]diphosphate, reference compound]
- Relative hydrolysis by NPP1 (human NPP1 [1]): not metabolized at all
- inhibition of pnp-TMP hydrolysis by NPP3 (human NPP3): less than 50%

Molecule: Nc1ncnc2c1ncn2[C@@H]1O[C@H](COP(=O)(O)CP(=O)(O)OP(O)(O)=S)[C@@H](O)[C@H]1O [APCPP-γ-S, adenosine 5′-[Pγ-thio]-α,β-methylenetriphosphate]
- Hydrolysis by NTPDase2 (human NTPDase2): 4.7 ± 0.2%
- inhibition at 100 µM (human NPP3): 23 to 43%
- IC50 (human NPP1 [2]): 0.39 ± 0.001 µM

Molecule: adenosine-5′-tetrathiobisphosphonate
- Relative hydrolysis by NPP1 (human NPP1 [1]): not metabolized at all
- Relative hydrolysis by NTPDase2 (human NTPDase2): 1 ± 0.2 % ± SD of ADP or AP2A hydrolysis
- inhibition of pnp-TMP hydrolysis by NPP3 (human NPP3): 7%

Molecule: di-adenosine-5′,5″-tetrathiobisphosphonate
- Relative hydrolysis by NPP1 (human NPP1 [1]): not metabolized at all
- inhibition of pnp-TMP hydrolysis by NPP3 (human NPP3): 20%
